Experimental data taken from patent US20060223050A1, “Therapeutic platelets and methods” (The Regents of the University of California Office of …, priority 2003, published 2006).
“And” between values parts separate entries of the source, which are not always exact repeats. Equal values may be shown once.

Key:
mesenchymal stem cells = experiment: Growth curves of mesenchymal stem cells with 90 mM trehalose; format: cell-based, human
Method: Growth Curves. MSCs were plated into 12-welled plates at approximately the same seeding density used for T-185 flasks in standard Osiris protocols (5900 cells/cm^2 with fluid volume of 0.189 mL/cm^2). Three wells for each condition at each time point were trypsinized and counted. Data for cells grown in the presence of trehalose were lost for the first two time points. FIG. 13 is a graph illustrating growth curves for the mesenchymal stem cells in the presence or absence of 90 mM trehalose with the open triangle data representing cells grown in standard medium for 24 hours, after which 90 mM trehalose was added.

human platelets [1] = experiment: Stability of platelets during trehalose incubation (microscopy, flow cytometric analysis); format: cell-based
Method: The uptake of trehalose is linear in the range from 0 to 30 mM external trehalose. The highest internal trehalose concentration is obtained with 50 mM external trehalose. At higher concentrations than 50 mM the internal trehalose concentration decreases again. Even when the loading buffer at these high trehalose concentrations is corrected for isotonicity by adjusting the salt concentration, the loading efficiency remains low. Platelets become swollen after 4 hours incubation in 75 mM trehalose.
The stability of the platelets during a 4 hours incubation period was studied using microscopy and flow cytometric analysis. […] No signs of microvesicle formation could be observed after 4 hours incubation, as can be judged by the stable relative proportion of microvesicle gated cells (less than 3%). The formation of microvesicles is usually considered as the first sign of platelet activation (Owners et al., Trans. Med. Rev., 8, 27-44, 1994). Characteristic antigens of platelet activation include: glycoprotein 53 (gp53, a lysosomal membrane marker), PECAM-1 (platelet endothelial cell adhesion molecule-1, an alpha granule constituent), and P-selection (an alpha granule membrane protein).

human platelets [2] = experiment: Loading of platelets with trehalose (anthrone quantification); format: cell-based; settings: 37° C., from 0 to 2 hours
Method: Washing of Platelets. Platelet concentrations were obtained from the Sacramento blood center or from volunteers in our laboratory. Platelet rich plasma was centrifuged for 8 minutes at 320×g to remove erythrocytes and leukocytes. The supernatant was pelleted and washed two times (480×g for 22 minutes, 480×g for 15 minutes) in buffer A (100 MM NaCl, 10 MM KCl, 10 mM EGTA, 10 mM imidazole, pH 6.8). Platelet counts were obtained on a Coulter counter T890 (Coulter, Inc., Miami, Fla.).
Loading of Platelets with Trehalose. Washed platelets in a concentration of 1-2 10^9 platelets/ml were incubated at various temperatures in the presence of 1-20 mg/ml trehalose. […] The amount of trehalose in the platelets was quantified using the anthrone reaction (Umbreit et al., Mamometric and Biochemical Techniques, 5th Edition, 1972). […] Then the samples were cooled on ice and the absorbance was measured at 620 nm on a Perkin Elmer spectrophotometer. The amount of platelet associated trehalose was determined using a standard curve of trehalose.
Quantification of Trehalose and LYCH Concentration. Uptake was calculated for each sample as micrograms of trehalose or LYCH per platelet. The internal trehalose concentration was calculated assuming a platelet radius of 1.2 μm and by assuming that 50% of the platelet volume is taken up by the cytosol (rest is membranes). […]

[3] = State diagram (glass transition temperature vs water content) by differential scanning calorimeter; format: physicochemical; settings: FIG. 40, assuming sample temperature of −50° C.
Excerpt: In another embodiment of the invention, it has been discovered that protein alters the physical properties of a preservative solution. More specifically, it has been discovered that the protein albumin alters the physical properties of the oligosaccharide trehalose solution as broadly illustrated in FIG. 40, which are graphs representing state diagrams (e.g., glass transition temperature vs. water content) for trehalose:water mixtures and for trehalose-albumin(1/1, wt/wt):water mixtures. A state diagram is a measure of the glass transition temperatures (Tg) for the respective mixtures (i.e., the various preservative:water mixtures and the various preservative-protein:water mixtures). The state diagrams broadly illustrated in FIG. 40 were obtained by respectively freeze-drying trehalose alone and freeze-drying a 1:1 (wt:wt) trehalose:albumin solution, and then adding back known amounts of water to the respective freeze-dried solutions. The glass transition temperatures for the trehalose:water solution and for the trehalose/albumin:solution were measured by a differential scanning calorimeter with conventional methods.

erythrocyte membranes = experiment: FTIR membrane phase transitions of erythrocytes
[4] = erythrocytes incubated 37° C. one hour with MβCD

## OC[C@H]1O[C@H](O[C@H]2O[C@H](CO)[C@@H](O)[C@H](O)[C@H]2O)[C@H](O)[C@@H](O)[C@@H]1O [trehalose]
Mesenchymal stem cells; after the third day
  effect on growth of the cells: cell count started to drop significantly
Mesenchymal stem cells; up to the third day
  effect on growth of the cells: did not interfere with growth of the cells
Human platelets [1]; 4 hours at 37° C., 25 mM external trehalose
  morphological changes: No morphological changes
Human platelets [1]; 4 hours incubation at 37° C. in 75 mM trehalose
  platelet morphology: swollen
Human platelets [1]; 4 hours incubation, flow cytometry
  relative proportion of microvesicle gated cells: less than 3%
Human platelets [2]
  trehalose uptake: 2.8×10^−11 mol/m^2s
[3]
  water content at which sample enters the glassy state: below 0.15 gram H2O/gram dry wt

## methyl-β-cyclodextrin [MβCD]
Erythrocyte membranes; [4]
  High Transition, Cooperativity: 0.091 ± 0.020 cm^−1/° C.
  High Transition, Transition Temperature: 35.4 ± 1.5 °C
  Low Transition, Cooperativity: 0.051 ± 0.004 cm^−1/° C.
  Low Transition, Transition Temperature: 15.3 ± 0.8 °C
  Middle Transition, Cooperativity: 0.095 ± 0.015 cm^−1/° C.
  Middle Transition, Transition Temperature: 25 °C and 26.0 ± 0.8 °C
Erythrocyte membranes; from −5 to 45° C., after cholesterol removal (control 0.7)
  wavenumber excursion of lipid CH2 band: 2.9 cm⁻¹

## CC(C)c1c(C(=O)Nc2ccccc2)c(-c2ccccc2)c(-c2ccc(F)cc2)n1CC[C@@H](O)C[C@@H](O)CC(=O)O [LIPITOR]
Erythrocyte membranes; from −5 to 45° C., erythrocytes of a donor who used LIPITOR (other donors 0.8)
  total wavenumber excursion: ~1.5 cm⁻¹
